Measured values from US20100099694A1, “2-ANILINO-4-HETEROARYL PYRIMIDINE DERIVATIVES, AND PREPARATION THEREOF AS MEDICAMENTS, PHARMACEUTICAL COMPOSITIONS, AND IN PARTICULAR IKK INHIBITORS” (SANOFI-AVENTIS, priority 2007, published 2010).

Work on `O=S(=O)(c1ccc(Nc2nccc(N3CCc4cc(F)ccc43)n2)cc1)N(CCN1CCCC1)C1CCNCC1` [Example 1, 4-[4-(5-Fluoro-2,3-dihydroindol-1-yl)pyrimidin-2-ylamino]-N-piperidin-4-yl-N-(2-pyrrolidin-1-yl-ethyl)benzenesulphonamide] yielded a melting point of 269.5 °C. `O=S(=O)(c1ccc(Nc2nccc(N3CCc4cc(F)ccc43)n2)cc1)N(CCN1CCCC1)C1CCN(C2CC2)CC1` [Example 2, N-(1-Cyclopropylpiperidin-4-yl)-4-[4-(5-fluoro-2,3-dihydroindol-1-yl)pyrimidin-2-ylamino]-N-(2-pyrrolidin-1-ylethyl)benzenesulphonamide] gave a melting point of 215.4 °C. `O=S(=O)(c1ccc(Nc2nccc(N3CCc4cc(F)ccc43)n2)cc1)N(CCN1CCCC1)C1CCN(CCCC(F)(F)F)CC1` [Example 3, 4-[4-(5-Fluoro-2,3-dihydroindol-1-yl)-pyrimidin-2-ylamino]-N-(2-pyrrolidin-1-ylethyl)-N-[1-(4,4,4-trifluorobutyl)piperidin-4-yl]benzenesulphonamide] showed a melting point of 198 °C. In the case of `O=S(=O)(c1ccc(Nc2nccc(N3CCc4cc(F)ccc43)n2)cc1)N(CCN1CCCC1)C1CCN(Cc2ccsc2)CC1` [Example 4, 4-[4-(5-Fluoro-2,3-dihydroindol-1-yl)pyrimidin-2-ylamino]-N-(2-pyrrolidin-1-ylethyl)-N-(1-thiophen-3-ylmethylpiperidin-4-yl)benzenesulphonamide], the melting point was 140 °C. Work on `Cn1cccc1CN1CCC(N(CCN2CCCC2)S(=O)(=O)c2ccc(Nc3nccc(N4CCc5cc(F)ccc54)n3)cc2)CC1` [Example 5, 4-[4-(5-Fluoro-2,3-dihydroindol-1-yl)-pyrimidin-2-ylamino]-N-[1-(1-methyl-1H-pyrrol-2-ylmethyl)piperidin-4-yl]-N-(2-pyrrolidin-1-ylethyl)benzenesulphonamide] yielded a melting point of 94 °C. Work on `O=S(=O)(c1ccc(Nc2nccc(N3CCc4cc(F)ccc43)n2)cc1)N(CCN1CCCC1)C1CCN(CCC(F)(F)F)CC1` [Example 6, 4-[4-(5-Fluoro-2,3-dihydroindol-1-yl)-pyrimidin-2-ylamino]-N-(2-pyrrolidin-1-ylethyl)-N-[1-(3,3,3-trifluoropropyl)piperidin-4-yl]benzenesulphonamide] yielded a melting point of 147 °C. Compound `O=S(=O)(c1ccc(Nc2nccc(N3CCc4cc(F)ccc43)n2)cc1)N(CCN1CCCC1)C1CCN(CC(F)(F)F)CC1` [Example 7, 4-[4-(5-Fluoro-2,3-dihydroindol-1-yl)-pyrimidin-2-ylamino]-N-(2-pyrrolidin-1-ylethyl)-N-[1-(2,2,2-trifluoroethyl)piperidin-4-yl]benzenesulphonamide] has a melting point of 139.3 °C. `O=S(=O)(c1ccc(Nc2nccc(N3CCc4cc(F)ccc43)n2)cc1)N(CCN1CCCC1)C1CCOCC1` [Example 8, 4-[4-(5-Fluoro-2,3-dihydroindol-1-yl)pyrimidin-2-ylamino]-N-(2-pyrrolidin-1-ylethyl)-N-(tetrahydropyran-4-yl)benzenesulphonamide] showed a melting point of 100 °C.
